The values below come from PMC5059943, “Screening for peptides targeted to IL-7Rα for molecular imaging of rheumatoid arthritis synovium” (Arthritis Research & Therapy, 2016).

Experiment [1] addresses T1, FN (Homo sapiens, UniProt P02751).
T1 construct: fragment 3 of recombinant human FN-1 (R&D Systems); purchased R&D Systems
Description: ELISA of biotinylated peptides, K*d for FN. It is filed as binding. As to conditions: Fig. 1a, 2 h at 37 °C, read-out: Kd: FN, synthesized peptides. How it is done:
(§1) Serial dilutions of biotinylated peptides were incubated with IL-7Rα or FN immobilized on ELISA plates as described above and blocked with protein-free blocking buffer (PFBB) (Perbioscience, Erembodegem, Belgium). Peptides bound to the target were detected with a goat anti-biotin antibody, followed by a peroxidase-conjugated anti-goat antibody made in horse (both from Vector Labconsult, Brussels, Belgium). […] The protocol is largely described in Additional file 1: Methods. […]
(§2) screening of the phage clones.
(§3) After 30 min of incubation, the […]
(§4) antibody as described above.
(§5) 2. Characterization of the selected IL-7Rα-binding peptides […]
(§6) by an incubation of 2h at 37°C. The wells were subsequently incubated (1h, room temperature) […]
(§7) 20 and 0.5% BSA (1h, room temperature). After each incubation step, the wells were washed with PBST-0.05% using a microplate washer. The staining reaction was developed with 0.1 […]
(§8) For this purpose, a range of IL-
(An ELISA detects its analyte on a solid surface through an enzyme-linked reagent.)

For experiment [2], the target named is T2, IL-7Rα (Homo sapiens, UniProt P16871).
T2 construct: screened against the extracellular domain of IL-7Rα (E^21–D^239); Fc (chimera partner); purchased R&D Systems
T2 sequence (P16871 21-239): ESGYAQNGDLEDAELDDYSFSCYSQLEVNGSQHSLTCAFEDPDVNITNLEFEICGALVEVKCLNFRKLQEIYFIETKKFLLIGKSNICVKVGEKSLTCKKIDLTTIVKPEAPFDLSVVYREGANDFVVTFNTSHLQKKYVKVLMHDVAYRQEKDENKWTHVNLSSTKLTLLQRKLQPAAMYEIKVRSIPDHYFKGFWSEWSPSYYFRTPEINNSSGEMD
Description: ELISA of biotinylated peptides, K*d for IL-7Rα. It is filed as binding. As to conditions: synthesized peptides, IL-7Rα vs. FN. How it is done: as §1, §2, §3, §4, §5, §6, §7, §8

The subject of experiment [3] is IL-7Rα expression of Jurkat cells. Description: IL-7Rα expression of ADC vs. NS Jurkat cells. Format: cell-based. The following applies: 0.4 μM ADC, 4 days.
Description: Jurkat cells were cultured in RPMI-1640 culture medium supplemented with 10 % newborn calf serum heat-inactivated and 1 % antibiotic-antimycotic (all from Invitrogen). The cells were stimulated with 0.4 μM of 5-Aza-2’-deoxycytidine (ADC, Sigma-Aldrich) [26]. The stimulated cells were immobilized on poly-L-lysine (Sigma-Aldrich) coated coverslips and fixed in a solution of 4 % formaldehyde (Sigma-Aldrich). […] Biotinylated peptides were detected with a goat anti-biotin antibody followed by fluorescein-conjugated rabbit anti-goat antibody (both from Vector Labconsult). Anti-IL-7Rα antibody was detected with Texas Red horse anti-mouse antibody (Vector Labconsult). […] The coverslips were mounted on slides with Vectashield mounting medium for fluorescence with 4',6-diamidino-2-phenylindole (DAPI) (Vector Labconsult) and observed on a DM2000 Leica microscope equipped with a DFC 425C camera (Leica Microsystems, Groot Bijgaarden, Belgium).
USPIO-P258 was co-localized with IL-7Rα expressed by Jurkat cells using an immunofluorescence protocol. […] The coverslips were finally mounted on slides with a mounting medium for fluorescence (Vector Labconsult). The RRFL was evaluated as described above.
Experiment [4] concerns the target IL-7Rα (high-affinity receptor) (Homo sapiens) (UniProt P16871). As to conditions: cited from earlier work.
Experiment [5] relates to STAT5 activation in ADC-stimulated Jurkat cells. The experiment in a line: Phospho-STAT5 detection on ADC-stimulated Jurkat cells by immunofluorescence. Format: cell-based, human. As to the method:
The solutions were replaced every day after culture tube centrifugation and supernatant removal.
The signal intensity (SI) was measured on microphotographs corresponding to three to six different microscopic fields using the ImageJ software (National Institutes of Health, USA), and the relative ratio of fluorescent labeling (RRFL) was then calculated using the subsequent equation: RRFL=SIsample/Numberofcells/SInegativecontrols/Numberofcells×100 […]
stained with 0.05% 3,3'-diaminobenzidine (DAB) completed with 0.02% H2O2 in PBS. Finally, they were counterstained with Hemalun and Luxol fast blue and mounted in a permanent […]
To validate the binding of biotinylated P258 to human knee sections, the endogenous biotin was first blocked with a blocking kit (Invitrogen). The histologic sections were then incubated (4°C, overnight) with 1 µM of P258, followed by an incubation (1h, room […]
goat antibody made in horse (Vector Labconsult). The staining and counterstaining were performed as described above for anti-IL-7Rα monoclonal antibody.
2.5. Phospho-STAT5 detection on Jurkat cells and modulation by peptide P725 Jurkat cells were cultured and stimulated with ADC as described above. The experiment was performed in triplicate on stimulated and non -stimulated cells that were distributed in several culture tubes at a concentration of 10^6 cells/mL and treated (37°C in a humidified 5% CO2 incubator) with different compounds diluted in the culture medium as follows: (A) cells […]
for 30 min with 1 mM of P725; (C) cells pre-incubated for 30 min with 10 µg/mL of mo use […]
In the case of samples B and C, the […]
replaced every day after centrifuging the culture tubes and removing the precedent solutions by […]
At the end of the treatment period, the cells were immobilized on poly -L-lysine coated coverslips and fixed with 4% formaldehyde as described above. After three times rinsing with PBS, the cells were treated with 100% methanol for 10 min at -20°C. […] The primary antibodies bound to the cells were then detected by a co- […]

The test system of experiment [6] is lysosome content of Jurkat cells. Description: Lysosome content of Jurkat cells (Lysotracker Red DND-99). Format: cell-based.
For experiment [7], the target named is high-affinity IL-7R. The following applies: read-out: Kd of IL-7 against high-affinity IL-7R, reported previously; cited from earlier work. An excerpt:
(§9) In addition, two antibodies were used to detect IL-7, which means that additional rinsing steps may contribute to extensive prot ...

Experiment [8] addresses low-affinity IL-7R. As to conditions: read-out: Kd of IL-7 against low-affinity IL-7R, reported previously; cited from earlier work.
Excerpt: as §9

Experiment [9] concerns IL-7Rα expressed by ADC-stimulated Jurkat cells. Description: Binding of peptides to ADC-stimulated Jurkat cells and co-localization with IL-7Rα by immunofluorescence. It is filed as cell-based, human. How it is done:
The cells were stimulated with 0.4 μM of 5-Aza-2’-deoxycytidine (ADC, Sigma-Aldrich). The stimulated cells were immobilized on poly-L-lysine (Sigma-Aldrich) coated coverslips and fixed in a solution of 4 % formaldehyde (Sigma-Aldrich). […] Biotinylated peptides were detected with a goat anti-biotin antibody followed by fluorescein-conjugated rabbit anti-goat antibody (both from Vector Labconsult). Anti-IL-7Rα antibody was detected with Texas Red horse anti-mouse antibody (Vector Labconsult). Control samples consisted of ADC-stimulated or non-stimulated (NS) Jurkat cells incubated with low-affinity peptide binders (e.g., P255, P259), a mouse IgG isotype control, or with secondary antibodies after excluding the primary antibodies. […] The protocol is additionally described in Additional file 1: Methods.
to the target was detected as described above.
(Sigma-Aldrich) diluted in PBS.
(Vector Labconsult) diluted in phosphate buffer. They were then co-incubated (1h, room
camera (Leica Microsystems, Groot Bijgaarden, Belgium).

Experiment [10] concerns the target T3, IL-7Rα 21-239 (Homo sapiens, UniProt P16871).
T3 chain: T2 sequence (P16871 21-239)
The experiment in a line: competition ELISA vs IL-7.

Experiment [11] deals with T3, IL-7Rα 21-239. The experiment in a line: ELISA.

Where a SMILES comes first, the peptide text is derived from it. Bridges are numbered along the chain shown (N, C = ends). Where no end group is shown, it is not given here. The star is where a group is joined. Biotin = O=C1N[C@H]2[C@H](CS[C@H]2CCCCC(=O)*)N1; AEEA = NCCOCCOCC(=O)O

T1 sequence (P02751 607-1265 limits assumed): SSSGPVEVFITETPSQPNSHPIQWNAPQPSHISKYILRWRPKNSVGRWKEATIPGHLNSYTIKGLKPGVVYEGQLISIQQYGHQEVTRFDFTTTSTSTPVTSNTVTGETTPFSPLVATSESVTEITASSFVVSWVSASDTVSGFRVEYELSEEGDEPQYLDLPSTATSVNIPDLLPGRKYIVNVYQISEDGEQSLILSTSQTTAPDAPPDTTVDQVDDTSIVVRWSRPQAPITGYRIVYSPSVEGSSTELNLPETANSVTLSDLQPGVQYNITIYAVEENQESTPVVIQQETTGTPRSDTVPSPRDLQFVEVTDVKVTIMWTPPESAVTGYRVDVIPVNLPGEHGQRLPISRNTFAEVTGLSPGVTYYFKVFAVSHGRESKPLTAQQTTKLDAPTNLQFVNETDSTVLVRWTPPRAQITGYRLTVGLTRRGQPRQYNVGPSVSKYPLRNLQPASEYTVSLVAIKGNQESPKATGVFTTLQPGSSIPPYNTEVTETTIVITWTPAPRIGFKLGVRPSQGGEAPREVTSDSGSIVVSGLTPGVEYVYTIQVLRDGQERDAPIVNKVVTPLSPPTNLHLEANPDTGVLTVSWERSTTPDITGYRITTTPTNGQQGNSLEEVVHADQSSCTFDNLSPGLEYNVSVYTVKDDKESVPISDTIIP

For orientation: Kd means the free concentration of one partner at which half of the binding sites on the other are occupied at equilibrium, for simple one-to-one binding. Consider ASACPPH-NH2 [Peptide P258], for which the dissociation constant (Kd) in experiment [1] stood at 1.8 µM.
As to `C[C@@H]1NC(=O)[C@@H](NC(=O)COCCOCCNC(=O)CCCC[C@@H]2SC[C@@H]3NC(=O)N[C@@H]32)CSSC[C@@H](C(N)=O)NC(=O)[C@H](Cc2c[nH]cn2)NC(=O)[C@@H]2CCCN2C(=O)[C@@H]2CCCN2C(=O)[C@H](CS)NC(=O)[C@H](C)NC(=O)[C@H](CO)NC1=O` [Peptide P726] ({Biotin-AEEA}-CASACPPHC-NH2; disulfide 1-9; C-terminus assumed), the “Relative affinity for IL-7Rα and FN, peptides” value in experiment [2] is recorded as “highest specific binding to IL-7Rα”.
As for `Nc1ncn([C@H]2C[C@H](O)[C@@H](CO)O2)c(=O)n1` [ADC, 5-Aza-2’-deoxycytidine], the “IL-7Rα expression in ADC cells vs. NS cells (fold)” value in experiment [3] was “about six”.
Take IL-7 (from UniProt P13232): the equilibrium dissociation constant (Kd) in [4] was 0.0002 µM.
On to “IL-7: human recombinant IL-7 (R&D Systems; eBioscience)”, for which the “Increase in phospho-STAT-5” value in [5] (IL-7 6 ng/mL, 48 h, vs. ADC-treated controls) was determined as 424%. Also, in experiment [6] (IL-7 vs. ADC-treated controls), the “Increase in lysosome content” value was 398%. For the same molecule, the Kd in [7] is 0.0002 µM; in [8], 0.01 µM.
Take `C[C@@H]1NC(=O)[C@@H]2CCCN2C(=O)[C@H](CCCNC(=N)N)NC(=O)[C@H](CCC(N)=O)NC(=O)[C@@H]2CCCN2C(=O)[C@H](Cc2c[nH]cn2)NC(=O)[C@@H]2CCCN2C(=O)[C@@H](NC(=O)COCCOCCNC(=O)CCCC[C@@H]2SC[C@@H]3NC(=O)N[C@@H]32)CSSC[C@@H](C(N)=O)NC1=O` [Peptide P722] ({Biotin-AEEA}-CPHPQRPAC-NH2; disulfide 1-9; C-terminus assumed): the “Relative affinity for IL-7Rα and FN, peptides” value in [2] is reported as “lost its affinity against IL-7Rα, displaying equivalent binding to FN”.
Regarding `CC[C@H](C)[C@@H]1NC(=O)[C@H](CCCCN)NC(=O)[C@@H](NC(=O)COCCOCCNC(=O)CCCC[C@@H]2SC[C@@H]3NC(=O)N[C@@H]32)CSSC[C@@H](C(N)=O)NC(=O)[C@@H]2CCCN2C(=O)[C@H](CCSC)NC(=O)[C@H](CO)NC(=O)[C@H](CCCCN)NC(=O)[C@H](CCSC)NC1=O` [Peptide P725] ({Biotin-AEEA}-CKIMKSMPC-NH2; disulfide 1-9; C-terminus assumed), the “Inhibition of IL-7-induced STAT5 activation” value in [5] (P725 1 mM or antibody 10 µg/mL pre-incubated 30 min, then IL-7 6 ng/mL 48 h, ADC-stimulated Jurkat cells) was 82%. In addition, the “Prevention of IL-7 binding and STAT-5 activation” value in experiment [5] (P725 1 mM or antibody 10 µg/mL pre-incubated 30 min, then IL-7 6 ng/mL 48 h, p < 0.01) is “prevented IL-7 binding and STAT-5 activation”. The “Lysosome content after treatment” value in experiment [6] (with IL-7, P725 or anti-IL-7Rα antibody, p < 0.05) is “significantly diminished”. Besides, the “Co-localization with IL-7Rα” value in [9] (biotinylated P258 (0.04 μM) or P725 (5 μM)) is reported as “co-localizes with peptides”. In addition, the “Decrease of anti-IL-7Rα monoclonal antibody staining intensity” value in experiment [9] (biotinylated P725 (5 μM), overnight 4 °C) stood at 57%.

B1: P725 (peptide)
chain: CKIMKSMPC
modifications: disulfide 1-9 (inferred); also: AEEA attached, end not given here
As usually defined, the IC50 is the concentration at which inhibition is half-maximal. Regarding B1, the 50% inhibitory concentration (IC50) in [10] stood at 16.4 µM.

B2: USPIO-P258 (peptide)
chain: ASACPPH-NH2
modifications: also: AEEA attached, end not given here, conjugated to PEGylated USPIO
In turn, B2 gave an equilibrium dissociation constant (Kd) in [11] of 4.9 µM. In experiment [10], the IC50 was 6.6 µM.

B3: P725 (peptide)
chain: CKIMKSMPC
modifications: disulfide 1-9 (inferred); also: biotin-AEEA attached, end not given here
Consider B3, for which binding in [11] was put at a Kd of 1.1 µM.

B4: P258 (peptide)
chain: ASACPPH
modifications: also: biotin-AEEA attached, end not given here
Regarding B4, the dissociation constant (Kd) in [11] is 0.6 µM.
